Assay results from ChEMBL document CHEMBL3808377, “Core Replacements in a Potent Series of VEGFR-2 Inhibitors and Their Impact on Potency, Solubility, and hERG” (ACS Med Chem Lett, 2016).
Converted amounts (≈) assume the structure as drawn.

Legend:
[1] = Aqueous solubility of the compound at pH 6.8; type: physicochemical
[2] = molecular target: Voltage-gated inwardly rectifying potassium channel KCNH2 (Homo sapiens, UniProt Q12809); assay: Binding affinity to human ERG by radioligand binding assay
Chain of Voltage-gated inwardly rectifying potassium channel KCNH2 (Q12809 whole entry): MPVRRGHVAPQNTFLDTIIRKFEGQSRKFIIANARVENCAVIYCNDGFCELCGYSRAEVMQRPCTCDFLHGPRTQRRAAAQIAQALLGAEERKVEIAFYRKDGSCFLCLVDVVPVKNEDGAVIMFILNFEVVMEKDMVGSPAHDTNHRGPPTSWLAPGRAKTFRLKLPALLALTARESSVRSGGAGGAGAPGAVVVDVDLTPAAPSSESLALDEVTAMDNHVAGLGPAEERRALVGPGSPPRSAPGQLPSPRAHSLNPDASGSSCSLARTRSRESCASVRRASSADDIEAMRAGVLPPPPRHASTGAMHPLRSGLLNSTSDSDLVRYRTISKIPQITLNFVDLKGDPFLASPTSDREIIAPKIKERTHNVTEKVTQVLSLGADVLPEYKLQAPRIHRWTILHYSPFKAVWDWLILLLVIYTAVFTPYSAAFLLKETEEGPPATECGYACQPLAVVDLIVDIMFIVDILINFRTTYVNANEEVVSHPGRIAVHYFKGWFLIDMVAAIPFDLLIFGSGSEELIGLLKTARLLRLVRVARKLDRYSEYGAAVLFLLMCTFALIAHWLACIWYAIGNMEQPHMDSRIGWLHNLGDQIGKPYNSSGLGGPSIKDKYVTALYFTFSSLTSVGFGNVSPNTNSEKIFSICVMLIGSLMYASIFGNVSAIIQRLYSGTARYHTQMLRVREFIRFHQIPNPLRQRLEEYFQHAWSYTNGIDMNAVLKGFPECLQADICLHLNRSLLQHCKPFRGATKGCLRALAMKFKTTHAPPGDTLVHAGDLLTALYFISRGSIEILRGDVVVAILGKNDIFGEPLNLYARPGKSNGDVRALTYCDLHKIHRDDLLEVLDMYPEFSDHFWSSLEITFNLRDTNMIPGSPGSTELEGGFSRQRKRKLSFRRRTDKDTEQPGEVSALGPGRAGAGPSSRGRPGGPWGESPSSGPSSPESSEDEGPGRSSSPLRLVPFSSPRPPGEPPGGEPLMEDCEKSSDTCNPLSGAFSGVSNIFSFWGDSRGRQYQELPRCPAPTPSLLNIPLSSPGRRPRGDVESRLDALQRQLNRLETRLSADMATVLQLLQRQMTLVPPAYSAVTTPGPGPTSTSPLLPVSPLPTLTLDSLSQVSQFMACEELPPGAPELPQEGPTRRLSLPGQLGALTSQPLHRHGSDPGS

| SMILES | solubility [1] [µM] | IC50 [2] [µM] |
| --- | --- | --- |
| CC(C)(C)c1cc(NC(=O)c2cnc3cc(Oc4ncnc5c4CNC5)ccn23)no1 | 456 (≈ 191 µg/mL) | 9.2 |
| CC(C)(C)c1cc(NC(=O)n2ccc3nc(Oc4ncnc5c4CNC5)ccc32)no1 | 260 (≈ 109 µg/mL) | 26 |
| C[C@H]1Cc2c(ncnc2Oc2ccc3c(ccn3C(=O)Nc3cc(C4(C(F)(F)F)CC4)on3)c2)CN1 | 34 (≈ 16.9 µg/mL) | 7.4 |
| CC(C)(C)c1cc(NC(=O)n2ccc3ccc(Oc4ncnc5c4CNC5)cc32)no1 | 81 (≈ 33.9 µg/mL) | 21 |
| CC1(c2cc(NC(=O)c3ccn4cc(Oc5ncnc6c5CNC6)ccc34)n[nH]2)CC1 | 280 (≈ 116 µg/mL) |  |
| C[C@H]1Cc2c(ncnc2Oc2ccc3ccn(C(=O)Nc4cc(C5(C(F)(F)F)CC5)on4)c3c2)CN1 | 3 (≈ 1.5 µg/mL) | 8.6 |
| CC(C)(C)c1cc(NC(=O)n2ccc3ncc(Oc4ncnc5c4CNC5)cc32)no1 | 240 (≈ 101 µg/mL) | > 30 |
| CC(C)(C)c1cc(NC(=O)n2ncc3cc(Oc4ncnc5c4CNC5)ccc32)no1 | 9 (≈ 3.78 µg/mL) | 7.7 |
| CC(C)(C)c1cc(NC(=O)n2ccc3cc(Oc4ncnc5c4CNC5)cnc32)no1 | 25 (≈ 10.5 µg/mL) | 5.7 |
